The assay addresses T1, Wis1 (Schizosaccharomyces pombe, UniProt P33886).
T1 construct: full length, N-terminal HA3 tag (JJS6, thermal shift) or N-terminal HA and C-terminal His6 tags (JJS7, kinase assay); nmt1 promoter at the chromosomal locus; expressed in S. pombe
T1 sequence (P33886 1-605): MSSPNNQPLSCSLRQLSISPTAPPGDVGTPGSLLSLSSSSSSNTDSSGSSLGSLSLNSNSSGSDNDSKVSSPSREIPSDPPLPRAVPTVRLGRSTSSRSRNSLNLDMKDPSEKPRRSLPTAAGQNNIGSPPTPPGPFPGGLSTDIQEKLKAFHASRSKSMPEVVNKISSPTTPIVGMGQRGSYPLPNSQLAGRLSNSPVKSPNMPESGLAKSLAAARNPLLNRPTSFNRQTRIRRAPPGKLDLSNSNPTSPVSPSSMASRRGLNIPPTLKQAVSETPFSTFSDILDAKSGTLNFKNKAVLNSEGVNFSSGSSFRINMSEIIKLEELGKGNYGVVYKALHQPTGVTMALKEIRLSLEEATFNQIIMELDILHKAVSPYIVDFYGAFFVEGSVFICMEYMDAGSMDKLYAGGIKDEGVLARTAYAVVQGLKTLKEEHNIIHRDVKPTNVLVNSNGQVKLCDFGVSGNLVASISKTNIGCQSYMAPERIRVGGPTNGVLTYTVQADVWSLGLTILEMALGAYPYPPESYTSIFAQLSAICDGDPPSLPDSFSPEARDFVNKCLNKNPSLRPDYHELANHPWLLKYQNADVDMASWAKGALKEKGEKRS
As to the kind of experiment: thermal shift in crude lysate, Western blot of soluble HA-Wis1. In kind it is biochemical.

One may read the ΔTm as the shift of the melting midpoint relative to a reference. For `CCOc1cccc(-c2cc(=O)c3ccccc3o2)c1N` [INR119], the ΔTm at 3 µM was found to be 2 °C.

The record behind these values is paper PMC7076255, “A Redox-Sensitive Thiol in Wis1 Modulates the Fission Yeast Mitogen-Activated Protein Kinase Response to H2O2 and Is the Target of a Small Molecule” (Molecular and Cellular Biology, 2020).
